ChEMBL document CHEMBL3085742, “Experimental confirmation of new drug-target interactions predicted by Drug Profile Matching” (J Med Chem, 2013)

Tests used:
[1] = target: D(1A) dopamine receptor (Homo sapiens) (UniProt P21728); experiment: Agonist activity at human recombinant dopamine D1 receptor expressed in CHOK1 cells assessed as stimulation of cAMP accumulation at 100 uM after 30 mins by HTRF assay relative to SKF81297; format: functional, cell-based; conditions: CHO-K1
[2] = target: D(2) dopamine receptor (Homo sapiens) (UniProt P14416); experiment: Antagonist activity at human recombinant dopamine D2 long receptor expressed in CHOK1 cells coexpressing mitochondrial apoaequorin assessed as inhibition of agonist-induced effect at 50 uM after 15 mins by luminometric analysis relative to haloperidol; format: cell-based; conditions: CHO-K1
Sequence of D(2) dopamine receptor (Homo sapiens) (P14416 whole entry): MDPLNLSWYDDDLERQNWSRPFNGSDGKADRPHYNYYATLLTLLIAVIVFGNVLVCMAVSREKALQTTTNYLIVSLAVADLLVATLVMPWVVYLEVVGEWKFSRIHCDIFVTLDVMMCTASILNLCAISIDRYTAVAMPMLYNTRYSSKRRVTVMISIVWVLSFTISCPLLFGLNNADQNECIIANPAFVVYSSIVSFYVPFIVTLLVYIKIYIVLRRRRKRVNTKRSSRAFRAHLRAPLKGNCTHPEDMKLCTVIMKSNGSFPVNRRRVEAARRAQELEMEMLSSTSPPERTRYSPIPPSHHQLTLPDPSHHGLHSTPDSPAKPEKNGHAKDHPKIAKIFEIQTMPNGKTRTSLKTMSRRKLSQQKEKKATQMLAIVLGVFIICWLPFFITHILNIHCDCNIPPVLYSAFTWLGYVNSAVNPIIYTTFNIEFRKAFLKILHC

[3] = target: D(1A) dopamine receptor (Homo sapiens) (UniProt P21728); experiment: Antagonist activity at human recombinant dopamine D1 receptor expressed in CHOK1 cells assessed as inhibition of agonist-induced cAMP accumulation at 100 uM preincubated for 10 mins prior to agonist addition measured after 30 mins by HTRF assay relative to SCH23390; format: functional, cell-based; conditions: CHO-K1
[4] = target: D(2) dopamine receptor (Homo sapiens) (UniProt P14416); experiment: Agonist activity at human recombinant dopamine D2 long receptor expressed in CHOK1 cells coexpressing mitochondrial apoaequorin at 100 uM by luminometric analysis relative to quinpirol; format: cell-based; conditions: CHO-K1
[5] = target: T1, Prostaglandin G/H synthase 1 (Homo sapiens, UniProt P23219); experiment: Inhibition of COX-1 (unknown origin) using arachidonic acid as substrate assessed as formation of prostanoid products at 500 uM preincubated for 10 mins prior to substrate addition measured after 2 mins by Ellman's method relative to control
T1 sequence (P23219 whole entry): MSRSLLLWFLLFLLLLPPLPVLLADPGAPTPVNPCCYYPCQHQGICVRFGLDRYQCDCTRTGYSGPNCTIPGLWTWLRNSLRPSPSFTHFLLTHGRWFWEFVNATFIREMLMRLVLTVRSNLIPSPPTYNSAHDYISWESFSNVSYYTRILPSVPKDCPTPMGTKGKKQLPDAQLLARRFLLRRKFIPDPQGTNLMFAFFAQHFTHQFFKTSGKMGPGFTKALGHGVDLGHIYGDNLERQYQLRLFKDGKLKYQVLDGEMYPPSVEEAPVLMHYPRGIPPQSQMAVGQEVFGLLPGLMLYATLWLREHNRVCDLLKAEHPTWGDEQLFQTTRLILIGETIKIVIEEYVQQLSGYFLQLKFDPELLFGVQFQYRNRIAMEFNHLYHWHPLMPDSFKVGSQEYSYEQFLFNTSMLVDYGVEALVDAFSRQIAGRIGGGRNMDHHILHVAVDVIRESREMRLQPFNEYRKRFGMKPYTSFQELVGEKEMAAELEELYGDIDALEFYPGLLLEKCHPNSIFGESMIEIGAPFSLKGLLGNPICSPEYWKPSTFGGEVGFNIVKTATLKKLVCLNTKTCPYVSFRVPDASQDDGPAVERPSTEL

[6] = target: T2, Angiotensin-converting enzyme (Homo sapiens, UniProt P12821); experiment: Inhibition of ACE (unknown origin) assessed as 3-Hydroxybutyril-glycil-glycil-glycine conversion to 3-hydroxybutyric acid at 500 uM after 60 mins by WST assay relative to control
T2 sequence (P12821 whole entry): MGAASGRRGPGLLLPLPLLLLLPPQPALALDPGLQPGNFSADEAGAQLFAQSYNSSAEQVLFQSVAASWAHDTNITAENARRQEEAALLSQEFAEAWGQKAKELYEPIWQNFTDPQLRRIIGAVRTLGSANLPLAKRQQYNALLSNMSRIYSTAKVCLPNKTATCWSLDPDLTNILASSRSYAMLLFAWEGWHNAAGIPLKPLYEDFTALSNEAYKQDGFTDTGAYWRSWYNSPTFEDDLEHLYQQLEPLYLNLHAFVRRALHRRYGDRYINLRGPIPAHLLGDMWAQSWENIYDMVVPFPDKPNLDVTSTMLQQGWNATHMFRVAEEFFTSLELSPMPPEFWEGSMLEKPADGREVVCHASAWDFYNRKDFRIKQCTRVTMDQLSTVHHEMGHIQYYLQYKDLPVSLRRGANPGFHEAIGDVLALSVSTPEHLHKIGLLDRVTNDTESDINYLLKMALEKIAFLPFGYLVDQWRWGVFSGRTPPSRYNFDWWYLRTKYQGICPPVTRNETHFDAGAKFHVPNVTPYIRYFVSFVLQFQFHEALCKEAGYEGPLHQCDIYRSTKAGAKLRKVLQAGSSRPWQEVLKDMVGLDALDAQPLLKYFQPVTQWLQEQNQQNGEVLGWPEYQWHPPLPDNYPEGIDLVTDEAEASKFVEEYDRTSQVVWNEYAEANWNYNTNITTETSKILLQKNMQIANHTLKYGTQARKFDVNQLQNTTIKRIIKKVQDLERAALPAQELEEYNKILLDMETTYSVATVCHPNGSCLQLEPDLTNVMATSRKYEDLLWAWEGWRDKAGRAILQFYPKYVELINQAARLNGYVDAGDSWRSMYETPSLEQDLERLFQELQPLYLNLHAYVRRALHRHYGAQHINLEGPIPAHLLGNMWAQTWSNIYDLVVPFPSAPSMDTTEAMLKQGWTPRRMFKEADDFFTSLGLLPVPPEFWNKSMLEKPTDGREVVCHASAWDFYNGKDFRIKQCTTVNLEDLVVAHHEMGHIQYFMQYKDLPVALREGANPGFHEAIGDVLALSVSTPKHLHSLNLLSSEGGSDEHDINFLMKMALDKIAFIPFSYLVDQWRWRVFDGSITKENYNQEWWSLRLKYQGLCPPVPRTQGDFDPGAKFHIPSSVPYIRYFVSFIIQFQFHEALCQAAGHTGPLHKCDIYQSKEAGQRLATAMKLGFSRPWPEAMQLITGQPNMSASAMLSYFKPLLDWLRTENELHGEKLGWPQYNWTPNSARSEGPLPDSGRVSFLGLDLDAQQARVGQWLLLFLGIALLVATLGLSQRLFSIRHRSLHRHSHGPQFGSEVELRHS

[7] = target: T2, Angiotensin-converting enzyme; experiment: Inhibition of ACE (unknown origin) assessed as 3-Hydroxybutyril-glycil-glycil-glycine conversion to 3-hydroxybutyric acid after 60 mins by WST assay
[8] = target: D(1A) dopamine receptor (Homo sapiens) (UniProt P21728); experiment: Antagonist activity at human recombinant dopamine D1 receptor expressed in CHOK1 cells assessed as inhibition of agonist-induced cAMP accumulation at 8 uM preincubated for 10 mins prior to agonist addition measured after 30 mins by HTRF assay relative to SCH23390; format: functional, cell-based; conditions: CHO-K1
[9] = target: D(2) dopamine receptor (Homo sapiens) (UniProt P14416); experiment: Antagonist activity at human recombinant dopamine D2 long receptor expressed in CHOK1 cells coexpressing mitochondrial apoaequorin assessed as inhibition of agonist-induced effect at 8 uM after 15 mins by luminometric analysis relative to haloperidol; format: cell-based; conditions: CHO-K1
[10] = target: D(2) dopamine receptor (Homo sapiens) (UniProt P14416); experiment: Agonist activity at human recombinant dopamine D2 long receptor expressed in CHOK1 cells coexpressing mitochondrial apoaequorin at 8 uM by luminometric analysis relative to quinpirol; format: cell-based; conditions: CHO-K1
[11] = target: D(1A) dopamine receptor (Homo sapiens) (UniProt P21728); experiment: Agonist activity at human recombinant dopamine D1 receptor expressed in CHOK1 cells assessed as stimulation of cAMP accumulation at 8 uM after 30 mins by HTRF assay relative to SKF81297; format: functional, cell-based; conditions: CHO-K1
[12] = target: T1, Prostaglandin G/H synthase 1; experiment: Inhibition of COX-1 (unknown origin) using arachidonic acid as substrate assessed as formation of prostanoid products preincubated for 10 mins prior to substrate addition measured after 2 mins by Ellman's method
[13] = target: T3, Prostaglandin G/H synthase 2 (Homo sapiens, UniProt P35354); experiment: Inhibition of COX-2 (unknown origin) using arachidonic acid as substrate assessed as formation of prostanoid products preincubated for 10 mins prior to substrate addition measured after 2 mins by Ellman's method
T3 sequence (P35354 whole entry): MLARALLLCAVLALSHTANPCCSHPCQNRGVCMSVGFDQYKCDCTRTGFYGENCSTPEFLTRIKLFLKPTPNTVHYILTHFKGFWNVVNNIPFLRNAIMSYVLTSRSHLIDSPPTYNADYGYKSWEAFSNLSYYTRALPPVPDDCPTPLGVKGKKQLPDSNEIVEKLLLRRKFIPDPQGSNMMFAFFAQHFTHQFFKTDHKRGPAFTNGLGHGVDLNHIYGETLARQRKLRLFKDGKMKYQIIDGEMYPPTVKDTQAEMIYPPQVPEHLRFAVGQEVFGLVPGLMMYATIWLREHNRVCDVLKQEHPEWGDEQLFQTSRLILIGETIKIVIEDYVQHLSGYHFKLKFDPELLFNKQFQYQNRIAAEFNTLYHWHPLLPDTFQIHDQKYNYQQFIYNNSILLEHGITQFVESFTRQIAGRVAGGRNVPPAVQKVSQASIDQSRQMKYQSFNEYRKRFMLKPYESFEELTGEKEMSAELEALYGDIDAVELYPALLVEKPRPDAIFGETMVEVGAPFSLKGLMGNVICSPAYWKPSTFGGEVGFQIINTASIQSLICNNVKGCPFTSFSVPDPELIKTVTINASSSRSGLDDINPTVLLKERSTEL

[14] = target: T2, Angiotensin-converting enzyme; experiment: Inhibition of ACE (unknown origin) assessed as 3-Hydroxybutyril-glycil-glycil-glycine conversion to 3-hydroxybutyric acid at 128 uM after 60 mins by WST assay relative to control

Sequence of D(1A) dopamine receptor (Homo sapiens) (P21728 whole entry): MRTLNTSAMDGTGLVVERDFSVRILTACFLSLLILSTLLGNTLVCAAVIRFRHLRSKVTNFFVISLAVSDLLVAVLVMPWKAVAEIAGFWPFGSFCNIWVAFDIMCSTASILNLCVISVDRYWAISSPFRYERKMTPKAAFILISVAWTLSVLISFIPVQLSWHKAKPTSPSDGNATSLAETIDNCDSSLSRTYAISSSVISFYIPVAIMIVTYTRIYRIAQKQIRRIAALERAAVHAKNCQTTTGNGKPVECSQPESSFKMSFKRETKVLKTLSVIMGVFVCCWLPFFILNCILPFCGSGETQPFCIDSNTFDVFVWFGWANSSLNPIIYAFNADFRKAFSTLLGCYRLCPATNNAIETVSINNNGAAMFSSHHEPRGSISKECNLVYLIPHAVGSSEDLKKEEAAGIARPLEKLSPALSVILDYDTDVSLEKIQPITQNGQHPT

| Structure (SMILES) | Activity [1] | inhibition [2] | inhibition [3] | Activity [4] | inhibition [5] | other results |
| --- | --- | --- | --- | --- | --- | --- |
| O[C@@H](c1cc(C(F)(F)F)nc2c(C(F)(F)F)cccc12)[C@H]1CCCCN1 (relative stereo) | 0.6% | 90% | 82% | 45% |  |  |
| CC(CN1c2ccccc2Sc2ccccc21)N(C)C (stereo not given) | -7.4% | 95% | 84% | 3.5% |  |  |
| NC(=O)N/N=C/c1ccc([N+](=O)[O-])o1 |  |  |  |  | 91% |  |
| O=C(O)CCCCC1CCSS1 (stereo not given) |  |  |  |  | 95% |  |
| COc1cc2nc(N3CCN(C(=O)C4COc5ccccc5O4)CC3)nc(N)c2cc1OC (stereo not given) | -4.7% |  | 102% | 2.4% |  |  |
| Nc1nc2[nH]cnc2c(=S)[nH]1 | 0.2% | 21% | 2.3% | 0.61% |  |  |
| Nc1ccc(/N=N/c2ccccc2)c(N)n1 |  |  |  |  | 23% |  |
| O=C(O)[C@@H]1CCCN1 [PROLINE] |  |  |  |  |  | inhibition [6]: 93%; Ki [7]: 86 µM; inhibition [7]: Dose-dependent effect |
| Oc1ccc(OCc2ccccc2)cc1 |  |  |  |  | 86% |  |
| Cc1ccc(-c2cc(C(F)(F)F)nn2-c2ccc(S(N)(=O)=O)cc2)cc1 |  |  |  |  |  | inhibition [8]: 95%; inhibition [9]: 96%; Activity [10]: 175%; Activity [11]: 1.8% |
| O=C(c1ccc(OCCN2CCCCC2)cc1)c1c(-c2ccc(O)cc2)sc2cc(O)ccc12 | -7.2% | 88% | 97% | 4.7% |  |  |
| CC[C@H]1OC(=O)[C@H](C)[C@@H](O[C@H]2C[C@@](C)(OC)[C@@H](O)[C@H](C)O2)[C@H](C)[C@@H](O[C@@H]2O[C@H](C)C[C@H](N(C)C)[C@H]2O)[C@](C)(O)C[C@@H](C)CN(C)[C@H](C)[C@@H](O)[C@]1(C)O |  |  |  |  | 68% |  |
| O=C1CN(/N=C/c2ccc([N+](=O)[O-])o2)C(=O)N1 |  |  |  |  | 66% |  |
| C[C@H](CS)C(=O)N1CCC[C@H]1C(=O)O [CAPTOPRIL] |  |  |  |  | 48% | Ki [12]: 17 µM; Ki [13]: 12 µM |
| CC/C=C\C/C=C\C/C=C\CCCCCCCC(=O)O [LINOLENIC ACID] |  |  |  |  | 100% | Ki [12]: 4 µM |
| CN(C)CCCN1c2ccccc2CCc2ccc(Cl)cc21 | -4.5% | 92% | 99% | 13% |  |  |
| Cc1nc(Nc2ncc(C(=O)Nc3c(C)cccc3Cl)s2)cc(N2CCN(CCO)CC2)n1 [DASATINIB] |  |  |  |  |  | inhibition [6]: 46%; Ki [7]: 715 µM; inhibition [7]: Dose-dependent effect |

| Structure (SMILES) | Activity [1] | inhibition [2] | inhibition [3] | Activity [4] | inhibition [5] | other results |
| --- | --- | --- | --- | --- | --- | --- |
| C#C[C@]1(O)CC[C@H]2[C@@H]3CCC4=CCCC[C@@H]4[C@H]3C(=C)C[C@@]21CC | 2.8% | 88% | 79% | 7.1% |  |  |
| CO[C@@H]1[C@@H](OC(N)=O)[C@@H](O)[C@H](Oc2ccc3c(O)c(NC(=O)c4ccc(O)c(CC=C(C)C)c4)c(=O)oc3c2C)OC1(C)C [NOVOBIOCIN] |  |  |  |  |  | inhibition [6]: 75%; Ki [7]: 167 µM; inhibition [7]: Dose-dependent effect |
| NS(=O)(=O)c1cc(C(=O)O)c(NCc2ccco2)cc1Cl |  |  |  |  | 36% |  |
| CCCc1nc2c(C)cc(-c3nc4ccccc4n3C)cc2n1Cc1ccc(-c2ccccc2C(=O)O)cc1 |  |  |  |  |  | inhibition [6]: 97%; Ki [7]: 6 µM; inhibition [7]: Dose-dependent effect |
| NC1=NCC2c3ccccc3Cc3ccccc3N12 (stereo not given) | -1% | 5.5% | 96% | -0.33% |  |  |
| CCC[C@@]1(CCc2ccccc2)CC(O)=C([C@H](CC)c2cccc(NS(=O)(=O)c3ccc(C(F)(F)F)cn3)c2)C(=O)O1 |  |  |  |  |  | inhibition [14]: 31% |
| Cc1c(O)cccc1C(=O)N[C@@H](CSc1ccccc1)[C@H](O)CN1C[C@H]2CCCC[C@H]2C[C@H]1C(=O)NC(C)(C)C |  |  |  |  |  | inhibition [6]: 48% |
| CCn1cc(C(=O)O)c(=O)c2ccc(C)nc21 |  |  |  |  | 34% |  |
| CN(C)CCC=C1c2ccccc2C=Cc2ccccc21 | -4.7% | 95% | 98% | 1% |  |  |
| CN(C)CC/C=C1/c2ccccc2COc2ccc(CC(=O)O)cc21 | -1.7% | 52% | 20% | -0.14% |  |  |
| O=[N+]([O-])c1ccc(O)c2ncccc12 [NITROXOLINE] |  |  |  |  | 97% | Ki [13]: 1 µM |
| CCc1cccc2c3c([nH]c12)C(CC)(CC(=O)O)OCC3 (stereo not given) | -1.9% | 13% | -1.4% | 0.96% |  |  |
| O=C1c2c(O)ccc(O)c2C(=O)c2c(NCCNCCO)ccc(NCCNCCO)c21 | 66% | 81% | 29% | -0.4% |  |  |
| CC(C)C(=O)Nc1ccc([N+](=O)[O-])c(C(F)(F)F)c1 |  |  |  |  | 100% |  |
| CC1(C)NC(=O)N(c2ccc([N+](=O)[O-])c(C(F)(F)F)c2)C1=O |  |  |  |  | 99% |  |
| CC(N)C12CC3CC(CC(C3)C1)C2 (stereo not given) | -0.8% | 41% | -0.4% | 3.6% |  |  |
| C[C@@H]1O[C@@H]1P(=O)(O)O | -1.2% | 29% | -1.3% | 0.09% |  |  |
